In paper PMC9259769, “Biochemical characterization and peptide mass fingerprinting of two glutathione transferases from Biomphalaria alexandrina snails (Gastropoda: Planorbidae)” (Journal of Genetic Engineering & Biotechnology, 2022):
Like-named read-outs stand apart in the source and are kept apart here.

Tests used:
[1] = test system: BaGST2; experiment: Inhibition of GSH-CDNB-conjugating activity and type of inhibition; type: biochemical, Biomphalaria alexandrina; conditions: for Type of inhibition / Vmax in the presence of inhibitor: CDNB as substrate; for Type of inhibition: inhibitor at less than I20; for Vmax in the presence of inhibitor: inhibitor at less than I20, without inhibitor 75.5; for IC50: GSH-CDNB-conjugating activity, standard assay conditions
Experimental: (§1) One unit of transferase activity is defined as the amount of enzyme which catalyzes the formation of 1 μmol of thioether per min, and the specific activity is expressed as μmol/min/mg protein.
(§2) The IC50 values were determined according to Yalcin [18]. The IC50 values were determined by plotting percentage activity values versus log inhibitor concentrations.
(§3) The type of inhibition of BSP, hematin, and CB was also examined by studying the effect of constant concentration (less than IC20) of each inhibitor on the Km (CDNB) and Vmax of BaGST2 and BaGST3.

[2] = test system: BaGST3; experiment: as above; type: biochemical, Biomphalaria alexandrina; conditions: for IC50: GSH-CDNB-conjugating activity, standard assay conditions; for Type of inhibition / Vmax in the presence of inhibitor: CDNB as substrate; for Type of inhibition: inhibitor at less than I20; for Vmax in the presence of inhibitor: inhibitor at less than I20, without inhibitor 48.8
Experimental: as §1, §2, §3

[3] = test system: BaGST2; experiment: Substrate specificity (glutathione transferase and peroxidase assays); type: biochemical, Biomphalaria alexandrina
Text: as §1
(§4) Enzyme activity with various aromatic substrates, namely, bromosulfophthalein (BSP), 1, 2-dichloro-4-nitrobenzene (DCNB), p-nitrophenethyl-bromide, and ethacrynic acid (EA), was examined as described.
(§5) Substrate specificities of BaGST2 and BaGST3 toward several compounds were studied.

[4] = test system: BaGST3; experiment: as above; type: biochemical, Biomphalaria alexandrina
Text: as §1, §4, §5

[5] = test system: BaGST2; experiment: Kinetic studies with varied GSH and CDNB concentrations; type: biochemical, Biomphalaria alexandrina; conditions: 25 °C, substrate varied (CDNB 0.01-1.5 mM, GSH 0.025-1.5 mM)
Text: as §1

[6] = test system: BaGST3; experiment: as above; type: biochemical, Biomphalaria alexandrina
Text: as §1

[7] = target: Biomphalaria alexandrina glutathione transferase BaGST3 (Biomphalaria alexandrina); experiment: SEC; Sephadex G-75 column (90 x 1.4 cm), 20 mM Tris-HCl pH 8.0, 100 mM NaCl, 4 °C; calibrated with standard proteins; apparent MW about 45 kDa compared with the subunit MW of 23.6 kDa by SDS-PAGE

**Q.** Which Type of inhibition [1] does the source give for `O=C1OC(c2ccc(O)c(S(=O)(=O)O)c2)(c2ccc(O)c(S(=O)(=O)O)c2)c2c(Br)c(Br)c(Br)c(Br)c21` [BSP, bromosulfophthalein] here?
**A.** Competitive

**Q.** What about the “Vmax in the presence of inhibitor” value [1] of the same molecule?
**A.** 75.5 μmol/min/mg protein

**Q.** And the IC50 [1]?
**A.** 80.4 µM

**Q.** And the IC50 [2]?
**A.** 95 µM

**Q.** What about the “Activity toward substrate (in words)” value ([3]; BaGST2) of the same molecule?
**A.** did not show any detectable activity

**Q.** What about the “Activity toward substrate (in words)” value ([4]; BaGST3) of the same molecule?
**A.** did not show any detectable activity

**Q.** How did the Type of inhibition [1] turn out when `Nc1c(S(=O)(=O)O)cc(Nc2ccc(Nc3nc(Cl)nc(Nc4ccccc4S(=O)(=O)O)n3)c(S(=O)(=O)O)c2)c2c1C(=O)c1ccccc1C2=O` [CB, Cibacron Blue] was run?
**A.** Competitive

**Q.** What about the “Vmax in the presence of inhibitor” value [1] of the same molecule?
**A.** 75.5 μmol/min/mg protein

**Q.** What about the IC50 [1] of the same molecule?
**A.** 2.35 µM

**Q.** What about the Type of inhibition [2] of the same molecule?
**A.** Competitive

**Q.** What about the “Vmax in the presence of inhibitor” value [2] of the same molecule?
**A.** 48.8 μmol/min/mg protein

**Q.** What about the IC50 [2] of the same molecule?
**A.** 0.58 µM

**Q.** Which Km [5] does the source give for `O=[N+]([O-])c1ccc(Cl)c([N+](=O)[O-])c1` [CDNB, 1-chloro-2,4-dinitrobenzene] here?
**A.** 3330 µM

**Q.** What about the Km ([6]; 25 °C, CDNB varied 0.01-1.5 mM, read-out: Km) of the same molecule?
**A.** 50 µM

**Q.** What about the “Specific activity toward CDNB” value ([3]; BaGST2 after GSH-Sepharose, 146-fold purification) of the same molecule?
**A.** 19.0 μmol/min/mg protein

**Q.** And the “Specific activity toward CDNB” value ([4]; BaGST3 after GSH-Sepharose, 346-fold purification)?
**A.** 45.2 μmol/min/mg protein

**Q.** Which results are given for `CC(C)(OO)c1ccccc1` [CuOOH, cumene hydroperoxide]?
**A.** Activity toward substrate (in words) ([3]; BaGST2): peroxidase activity; Substrate specificity (specific activity) ([3]; BaGST2, means ± SD, n ≥ 4): 0.60 ± 0.02 µmol/min/mg; Activity toward substrate (in words) ([4]; BaGST3): peroxidase activity; Substrate specificity (specific activity) ([4]; BaGST3, means ± SD, n ≥ 4): 1.40 ± 0.03 µmol/min/mg

**Q.** What does the source list for `O=[N+]([O-])c1ccc(Cl)c(Cl)c1` [DCNB, 1,2-dichloro-4-nitrobenzene]?
**A.** Activity toward substrate (in words) ([3]; BaGST2): low activity; Substrate specificity (specific activity), DCNB × 10^3 ([3]; BaGST2, means ± SD, n ≥ 4): 30 ± 1.5 μmol/min/mg × 10^3; Activity toward substrate (in words) ([4]; BaGST3): low activity; Substrate specificity (specific activity), DCNB × 10^3 ([4]; BaGST3, means ± SD, n ≥ 4): 10 ± 0.6 μmol/min/mg × 10^3

**Q.** How did the “Activity toward substrate (in words)” value ([3]; BaGST2) turn out when `C=C(CC)C(=O)c1ccc(OCC(=O)O)c(Cl)c1Cl` [EA, ethacrynic acid] was run?
**A.** high activity

**Q.** What about the “Substrate specificity (specific activity)” value ([3]; BaGST2, means ± SD, n ≥ 4) of the same molecule?
**A.** 3.80 ± 0.11 µmol/min/mg

**Q.** What about the “Activity toward substrate (in words)” value ([4]; BaGST3) of the same molecule?
**A.** high activity

**Q.** And the “Substrate specificity (specific activity)” value ([4]; BaGST3, means ± SD, n ≥ 4)?
**A.** 2.60 ± 0.10 µmol/min/mg

**Q.** What does the source list for `N[C@@H](CCC(=O)N[C@@H](CS)C(=O)NCC(=O)O)C(=O)O` [GSH, γ-L-glutamyl-L-cysteinyl-glycine]?
**A.** Km [5]: 220 µM; Km ([6]; read-out: Km (GSH), high GSH concentrations, non-Michaelian, GSH 0.5-5 mM): 610 µM; Km ([6]; read-out: Km (GSH), low GSH concentrations, non-Michaelian, GSH 0.025-0.5 mM): 150 µM

**Q.** What does the source list for `C=CC1=C(C)c2cc3[n-]c(cc4[n-]c(cc5nc(cc1n2)C(C)=C5C=C)c(C)c4CCC(=O)O)c(CCC(=O)O)c3C.O.[Fe+2]` [Hematin, hematin]?
**A.** Type of inhibition [1]: Mixed; Vmax in the presence of inhibitor [1]: 13.7 μmol/min/mg protein; IC50 [1]: 1.35 µM; Type of inhibition [2]: Noncompetitive; Vmax in the presence of inhibitor [2]: 15.8 μmol/min/mg protein; IC50 [2]: 0.46 µM

**Q.** `N[C@@H](CCC(=O)N[C@@H](CSCc1ccc(Br)cc1)C(=O)NCC(=O)O)C(=O)O` [S-P-bromobenzyl-GSH] was tested. Which IC50 [1] did it give?
**A.** 9.3 µM

**Q.** What about the IC50 [2] of the same molecule?
**A.** 34.9 µM

**Q.** With `CCCCSCC(NC(=O)CCC(N)C(=O)O)C(=O)NCC(=O)O` (stereo not drawn) [S-butyl-GSH] as the molecule, how does the IC50 [1] read?
**A.** 69.1 µM

**Q.** And the IC50 [2]?
**A.** 51.2 µM

**Q.** What does the source list for `CCCCCCSC[C@H](NC(=O)CC[C@H](N)C(=O)O)C(=O)NCC(=O)O` [S–hexyl-GSH, S-hexyl-GSH]?
**A.** IC50 [1]: 36.3 µM; IC50 [2]: 19.5 µM

**Q.** With `O=[N+]([O-])c1ccc(CCBr)cc1` [p-Nitro-phenethylbromide, p-nitrophenethyl-bromide] as the molecule, how does the “Activity toward substrate (in words)” value ([3]; BaGST2) read?
**A.** low activity

**Q.** What about the “Substrate specificity (specific activity)” value ([3]; BaGST2, means ± SD, n ≥ 4) of the same molecule?
**A.** 2.70 ± 0.13 µmol/min/mg

**Q.** And the “Activity toward substrate (in words)” value ([4]; BaGST3)?
**A.** low activity

**Q.** And the “Substrate specificity (specific activity)” value ([4]; BaGST3, means ± SD, n ≥ 4)?
**A.** 6.00 ± 0.20 µmol/min/mg

**Q.** How did the stoichiometry N [7] turn out when “Biomphalaria alexandrina glutathione transferase BaGST3 (enzyme)” was run?
**A.** 2
